Source: the NIST ThermoML archive (doi:10.1016/j.jct.2010.12.028)
Numbers after ± are expanded uncertainties.

Tests used:
[1] = xn = mol fraction of the nth substance listed; conditions: 101 kPa, Liquid; for speed of sound: Sing-around technique in a fixed-path interferometer; for mass density: Vibrating tube method
[2] = excess molar enthalpy (molar enthalpy of mixing); xn = mol fraction of the nth substance listed; conditions: 308.15 K, 101 kPa, Liquid, two-drop calorimeter

Cc1ccccn1 [2-methylpyridine] + Cc1ccccc1N
[1]
Conditions | mass density, 298.15 K [kg/m3] | mass density, 303.15 K [kg/m3] | mass density, 308.15 K [kg/m3] | speed of sound, 298.15 K [m/s] | speed of sound, 303.15 K [m/s] | speed of sound, 308.15 K [m/s]
x2 = 0.0588 | 944.871 ± 0.74 | 940.204 ± 0.73 | 935.521 ± 0.73 | 1395.6 ± 2.9 | 1376.2 ± 2.9 | 1355.7 ± 2.9
x2 = 0.1226 | 950.051 ± 0.7 | 945.414 ± 0.69 | 940.771 ± 0.69 | 1412 ± 2.8 | 1392.5 ± 2.8 | 1372.3 ± 2.8
x2 = 0.1427 | 951.609 ± 0.68 | 946.996 ± 0.68 | 942.357 ± 0.68 | 1417.3 ± 2.8 | 1397.5 ± 2.8 | 1377.4 ± 2.8
x2 = 0.1759 | 954.117 ± 0.66 | 949.518 ± 0.66 | 944.908 ± 0.66 | 1425.8 ± 2.8 | 1405.8 ± 2.8 | 1385.8 ± 2.8
x2 = 0.2258 | 957.721 ± 0.63 | 953.161 ± 0.63 | 948.573 ± 0.62 | 1438.3 ± 2.8 | 1418.1 ± 2.8 | 1398.3 ± 2.8
x2 = 0.2557 | 959.793 ± 0.61 | 955.24 ± 0.61 | 950.677 ± 0.61 | 1445.7 ± 2.8 | 1425.4 ± 2.8 | 1405.6 ± 2.7
x2 = 0.3113 | 963.447 ± 0.58 | 958.931 ± 0.58 | 954.409 ± 0.57 | 1459.5 ± 2.7 | 1438.7 ± 2.7 | 1418.7 ± 2.7
x2 = 0.3629 | 966.623 ± 0.55 | 962.158 ± 0.55 | 957.666 ± 0.54 | 1471.8 ± 2.7 | 1450.8 ± 2.7 | 1430.8 ± 2.7
x2 = 0.4213 | 969.995 ± 0.52 | 965.568 ± 0.51 | 961.112 ± 0.51 | 1485.4 ± 2.6 | 1464 ± 2.6 | 1443.9 ± 2.6
x2 = 0.4743 | 972.843 ± 0.49 | 968.45 ± 0.48 | 964.025 ± 0.48 | 1497.5 ± 2.6 | 1475.7 ± 2.6 | 1455.4 ± 2.6
x2 = 0.5146 | 974.899 ± 0.46 | 970.527 ± 0.46 | 966.122 ± 0.46 | 1506.3 ± 2.6 | 1484.4 ± 2.6 | 1464 ± 2.6
x2 = 0.5732 | 977.707 ± 0.43 | 973.382 ± 0.43 | 968.998 ± 0.43 | 1519.1 ± 2.6 | 1496.8 ± 2.6 | 1476.2 ± 2.6
x2 = 0.6182 | 979.733 ± 0.41 | 975.431 ± 0.41 | 971.079 ± 0.41 | 1528.4 ± 2.5 | 1505.9 ± 2.5 | 1485.5 ± 2.5
x2 = 0.6862 | 982.621 ± 0.37 | 978.364 ± 0.37 | 974.033 ± 0.37 | 1542.2 ± 2.5 | 1519.4 ± 2.5 | 1498.8 ± 2.5
x2 = 0.7571 | 985.441 ± 0.34 | 981.219 ± 0.34 | 976.909 ± 0.34 | 1556.3 ± 2.5 | 1532.9 ± 2.5 | 1508 ± 2.5
x2 = 0.8344 | 988.355 ± 0.3 | 984.158 ± 0.3 | 979.889 ± 0.3 | 1571.1 ± 2.4 | 1547.4 ± 2.4 | 1522.5 ± 2.4
x2 = 0.8737 | 989.787 ± 0.28 | 985.611 ± 0.28 | 981.361 ± 0.28 | 1578.5 ± 2.4 | 1554.6 ± 2.4 | 1538.1 ± 2.4
x2 = 0.9527 | 992.636 ± 0.25 | 988.492 ± 0.25 | 984.295 ± 0.25 | 1593.5 ± 2.4 | 1569.1 ± 2.4 | 1555.1 ± 2.4

[2]
Conditions | excess molar enthalpy [kcal/mol]
x2 = 0.0496 | -0.0681 ± 0.00311
x2 = 0.0772 | -0.103 ± 0.0043
x2 = 0.1356 | -0.173 ± 0.00717
x2 = 0.1802 | -0.22 ± 0.00908
x2 = 0.2234 | -0.26 ± 0.0105
x2 = 0.2736 | -0.298 ± 0.0122
x2 = 0.3294 | -0.327 ± 0.0134
x2 = 0.3813 | -0.347 ± 0.0141
x2 = 0.4326 | -0.361 ± 0.0146
x2 = 0.4882 | -0.358 ± 0.0146
x2 = 0.5321 | -0.351 ± 0.0143
x2 = 0.5735 | -0.342 ± 0.0139
x2 = 0.6423 | -0.307 ± 0.0124
x2 = 0.7152 | -0.259 ± 0.0105
x2 = 0.7821 | -0.207 ± 0.00837
x2 = 0.8293 | -0.163 ± 0.00669
x2 = 0.8916 | -0.104 ± 0.0043
x2 = 0.9676 | -0.0298 ± 0.0016

Cc1cccnc1 [3-methylpyridine] + Cc1ccccc1N
[1]
Conditions | mass density, 298.15 K [kg/m3] | mass density, 303.15 K [kg/m3] | mass density, 308.15 K [kg/m3] | speed of sound, 298.15 K [m/s] | speed of sound, 303.15 K [m/s] | speed of sound, 308.15 K [m/s]
x2 = 0.0447 | 955.059 ± 0.24 | 950.551 ± 0.24 | 945.98 ± 0.24 | 1433 ± 2.3 | 1413 ± 2.3 | 1393.3 ± 2.3
x2 = 0.1132 | 959.404 ± 0.24 | 954.953 ± 0.24 | 950.452 ± 0.24 | 1446.4 ± 2.3 | 1426.4 ± 2.3 | 1407 ± 2.3
x2 = 0.1771 | 963.134 ± 0.24 | 958.721 ± 0.24 | 954.262 ± 0.24 | 1458.6 ± 2.3 | 1438.8 ± 2.3 | 1419.5 ± 2.3
x2 = 0.2069 | 964.775 ± 0.24 | 960.381 ± 0.24 | 955.934 ± 0.24 | 1464.1 ± 2.3 | 1444.5 ± 2.3 | 1425.1 ± 2.3
x2 = 0.2467 | 966.875 ± 0.24 | 962.502 ± 0.24 | 958.079 ± 0.24 | 1471.5 ± 2.3 | 1451.9 ± 2.3 | 1432.5 ± 2.3
x2 = 0.2888 | 968.994 ± 0.24 | 964.629 ± 0.24 | 960.232 ± 0.24 | 1479.1 ± 2.3 | 1459.8 ± 2.3 | 1440.4 ± 2.3
x2 = 0.3112 | 970.081 ± 0.24 | 965.722 ± 0.24 | 961.335 ± 0.24 | 1483.1 ± 2.3 | 1463.9 ± 2.3 | 1444.3 ± 2.3
x2 = 0.3624 | 972.469 ± 0.24 | 968.119 ± 0.24 | 963.751 ± 0.24 | 1492.2 ± 2.4 | 1473.1 ± 2.3 | 1453.4 ± 2.3
x2 = 0.4182 | 974.916 ± 0.24 | 970.586 ± 0.24 | 966.234 ± 0.24 | 1502 ± 2.4 | 1483 ± 2.3 | 1463.2 ± 2.3
x2 = 0.4632 | 976.799 ± 0.24 | 972.478 ± 0.24 | 968.134 ± 0.24 | 1509.7 ± 2.4 | 1490.6 ± 2.4 | 1470.9 ± 2.3
x2 = 0.5336 | 979.577 ± 0.24 | 975.273 ± 0.24 | 970.94 ± 0.24 | 1521.7 ± 2.4 | 1502.6 ± 2.3 | 1482.7 ± 2.3
x2 = 0.5778 | 981.226 ± 0.24 | 976.931 ± 0.24 | 972.616 ± 0.24 | 1529.2 ± 2.4 | 1509.7 ± 2.4 | 1489.9 ± 2.3
x2 = 0.6334 | 983.223 ± 0.24 | 978.936 ± 0.24 | 974.642 ± 0.24 | 1538.6 ± 2.4 | 1518.8 ± 2.4 | 1499 ± 2.4
x2 = 0.6967 | 985.375 ± 0.24 | 981.112 ± 0.24 | 976.836 ± 0.24 | 1549.2 ± 2.4 | 1528.8 ± 2.3 | 1509.3 ± 2.4
x2 = 0.7372 | 986.701 ± 0.24 | 982.449 ± 0.24 | 978.187 ± 0.24 | 1556 ± 2.4 | 1535.1 ± 2.4 | 1515.8 ± 2.4
x2 = 0.8156 | 989.151 ± 0.24 | 984.927 ± 0.24 | 980.689 ± 0.24 | 1569.5 ± 2.4 | 1547.5 ± 2.4 | 1528.4 ± 2.4
x2 = 0.8842 | 991.171 ± 0.23 | 986.982 ± 0.24 | 982.772 ± 0.24 | 1581.5 ± 2.4 | 1558.4 ± 2.4 | 1539.5 ± 2.4
x2 = 0.9711 | 993.588 ± 0.23 | 989.441 ± 0.23 | 985.272 ± 0.24 | 1597.2 ± 2.4 | 1572.8 ± 2.4 | 1553.6 ± 2.4

[2]
Conditions | excess molar enthalpy [kcal/mol]
x2 = 0.0503 | -0.0794 ± 0.00359
x2 = 0.0843 | -0.125 ± 0.00526
x2 = 0.1425 | -0.194 ± 0.00789
x2 = 0.1901 | -0.236 ± 0.00956
x2 = 0.2323 | -0.268 ± 0.011
x2 = 0.2837 | -0.301 ± 0.0122
x2 = 0.3334 | -0.321 ± 0.0131
x2 = 0.3783 | -0.334 ± 0.0136
x2 = 0.4436 | -0.337 ± 0.0136
x2 = 0.4926 | -0.337 ± 0.0136
x2 = 0.5487 | -0.323 ± 0.0131
x2 = 0.5902 | -0.312 ± 0.0127
x2 = 0.6643 | -0.281 ± 0.0115
x2 = 0.7182 | -0.248 ± 0.01
x2 = 0.7789 | -0.209 ± 0.0086
x2 = 0.8348 | -0.163 ± 0.00669
x2 = 0.8937 | -0.11 ± 0.00454
